Reference: US8716475B2, “2-aminopyrimidine modulators of the histamine H4 receptor” (Janssen Pharmaceutica NV, priority 2007, dated 2014)

Target: T1, human H4 receptor (Homo sapiens, UniProt Q9H3N8)
T1 construct: expressed in transfected cells
Assay: Binding Assay on Recombinant Human Histamine H4 Receptor
Conditions: Table 1; [3H] histamine competition binding, membranes of SK-N-MC cells transfected with human H4 receptor; average of results
Procedure, shortened: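 Radioligand binding used membranes from SK-N-MC cells stably or transiently expressing human H4, prepared in 50 mM Tris/5 mM EDTA. Nonspecific binding was defined with 100 μM histamine. Bound radioactivity was counted after filtration on PEI-treated GF/C filters, and ">" values are the highest concentration tested.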

Row | SMILES | Ki
1 | CN[C@@H]1CCN(c2nc(N)nc3c2CCCC3)C1 [Example 69, (R)-4-(3-Methylamino-pyrrolidin-1-yl)-5,6,7,8-tetrahydro-quinazolin-2-ylamine] | 43 nM
2 | CCc1cc(N2C[C@H]3CCCN[C@H]3C2)nc(N)n1 [Example 39, (R,R)-(4-Ethyl-6-octahydro-pyrrolo[3,4-b]pyridin-6-yl)-pyrimidin-2-ylamine] | 10 nM
3 | CN[C@@H]1CCN(c2cc(C(C)C)nc(N)n2)C1 [Example 11, (R)-4-Isopropyl-6-(3-methylamino-pyrrolidin-1-yl)-pyrimidin-2-ylamine] | 12 nM
4 | CN1CCN(c2cc(C3CCCC3)nc(N)n2)CC1 [Example 2, 4-Cyclopentyl-6-(4-methyl-piperazin-1-yl)-pyrimidin-2-ylamine] | 1 nM
5 | CC(C)c1cc(N2CCNCC2)nc(N)n1 [Example 8, 4-Isopropyl-6-piperazin-1-yl-pyrimidin-2-ylamine] | 3 nM
6 | Nc1nc2c(c(N3CC[C@@H](N)C3)n1)CCCC2 [Example 68, (R)-4-(3-Amino-pyrrolidin-1-yl)-5,6,7,8-tetrahydro-quinazolin-2-ylamine] | 115 nM
7 | CC(C)c1cc(N2C[C@H]3CN(C)C[C@H]3C2)nc(N)n1 [Example 18, 4-Isopropyl-6-(cis-5-methyl-hexahydro-pyrrolo[3,4-c]pyrrol-2-yl)-pyrimidin-2-ylamine] | 17 nM
8 | CCc1cc(N2CC[C@@H](N)C2)nc(N)n1 [Example 35, (R)-4-(3-Amino-pyrrolidin-1-yl)-6-ethyl-pyrimidin-2-ylamine] | 21 nM
9 | Nc1nc(C2CCC2)cc(N2CCNCC2)n1 [Example 43, 4-Cyclobutyl-6-piperazin-1-yl-pyrimidin-2-ylamine] | 2 nM
10 | CC(C)c1cc(N2CC[C@@H](N)C2)nc(N)n1 [Example 12, (R)-4-(3-Amino-pyrrolidin-1-yl)-6-isopropyl-pyrimidin-2-ylamine] | 18 nM
11 | Nc1nc2c(c(N3C[C@H]4CCN[C@H]4C3)n1)CCCC2 [Example 70, (R,R)-4-(Hexahydro-pyrrolo[3,4-b]pyrrol-5-yl)-5,6,7,8-tetrahydro-quinazolin-2-ylamine] | 404 nM
12 | CN1CCN(c2nc(N)nc3c2CCCC3)CC1 [Example 66, 4-(4-Methyl-piperazin-1-yl)-5,6,7,8-tetrahydro-quinazolin-2-ylamine] | 4 nM
13 | Nc1nc(C2CCC2)cc(N2CCC[C@@H](N)C2)n1 [Example 45, (R)-4-(3-Amino-piperidin-1-yl)-6-cyclobutyl-pyrimidin-2-ylamine] | 103 nM
14 | Cc1nc(N)nc(N2CC3CCCNC3C2)c1C (stereo not drawn) [Example 31, 4,5-Dimethyl-6-(cis-octahydro-pyrrolo[3,4-b]pyridin-6-yl)-pyrimidin-2-ylamine] | 249 nM

Same assay, conditions: Table 2, data marked with an asterisk (*): obtained by the cell harvester method; [3H] histamine competition binding, SK-N-MC membranes

Row | Ki | SMILES
15 | 1430 nM | COc1c(C2CCCC2)nc(N)nc1N(C)CCN [Example 115, N^4-(2-Amino-ethyl)-6-cyclopentyl-5-methoxy-N^4-methyl-pyrimidine-2,4-diamine]
16 | 39 nM | CCCCc1nc(N)nc(N2CC[C@@H](NC)C2)c1OC [Example 106, (R)-4-Butyl-5-methoxy-6-(3-methylamino-pyrrolidin-1-yl)-pyrimidin-2-ylamine]

Same assay, conditions: Table 2; [3H] histamine competition binding, membranes of SK-N-MC cells transfected with human H4 receptor; average of results

Row | SMILES | Ki
17 | CC(C)c1cc(N2CC3NCCOC3C2)nc(N)n1 (single isomer, unassigned) [Example 93, 4-(cis-Hexahydro-pyrrolo[3,4-b][1,4]oxazin-6-yl)-6-isopropyl-pyrimidin-2-ylamine] | 481 nM
18 | Nc1nc(C2CCCC2)cc(N2CC3NCCOC3C2)n1 (single isomer, unassigned) [Example 86, 4-Cyclopentyl-6-(trans-hexahydro-pyrrolo[3,4-b][1,4]oxazin-6-yl)-pyrimidin-2-ylamine] | 56 nM
19 | CN1CCN(c2nc(N)nc3c2COCC3)CC1 [Example 96, 4-(4-Methyl-piperazin-1-yl)-7,8-dihydro-5H-pyrano[4,3-d]pyrimidin-2-ylamine] | 35 nM
20 | NCCNc1cc(Cc2cccs2)nc(N)n1 [Example 218, N^4-(2-Amino-ethyl)-6-thiophen-2-ylmethyl-pyrimidine-2,4-diamine] | 20 nM
21 | Nc1nc(CCC(F)(F)F)cc(N2CCNCC2)n1 [Example 182, 4-piperazin-1-yl-6-(3,3,3-trifluoro-propyl)-pyrimidin-2-ylamine] | 20 nM
22 | CC(C)c1cc(N2CC3NCCOC3C2)nc(N)n1 (single isomer, unassigned) [Example 94, 4-(trans-Hexahydro-pyrrolo[3,4-b][1,4]oxazin-6-yl)-6-isopropyl-pyrimidin-2-ylamine] | 497 nM
23 | CC(C)(C)c1cc(N2CC3CCC(C2)N3)nc(N)n1 [Example 134, 4-tert-Butyl-6-(3,8-diaza-bicyclo[3.2.1]oct-3-yl)-pyrimidin-2-ylamine] | 130 nM
24 | NCCNc1cc(Cc2ccsc2)nc(N)n1 [Example 212, N^4-(2-Amino-ethyl)-6-thiophen-3-ylmethyl-pyrimidine-2,4-diamine] | 12 nM
25 | CN1C[C@@H]2CN(c3cc(C4CCCC4)nc(N)n3)C[C@@H]2C1 [Example 82, 4-Cyclopentyl-6-(cis-5-methyl-hexahydro-pyrrolo[3,4-c]pyrrol-2-yl)-pyrimidin-2-ylamine] | 25 nM
26 | Nc1nc(C2CCCC2)cc(N2C[C@H]3CCN[C@H]3C2)n1 [Example 83, (R,R)-4-Cyclopentyl-6-(hexahydro-pyrrolo[3,4-b]pyrrol-5-yl)-pyrimidin-2-ylamine] | 3 nM
27 | Nc1nc(Cc2ccsc2)cc(N2CC3CCCNC3C2)n1 (stereo not drawn) [Example 211, 4-(cis-Octahydro-pyrrolo[3,4-b]pyridin-6-yl)-6-thiophen-3-ylmethyl-pyrimidin-2-ylamine] | 4 nM
28 | CC1(c2cc(N3C[C@H]4CNC[C@H]4C3)nc(N)n2)CCOCC1 [Example 170, 4-(cis-Hexahydro-pyrrolo[3,4-c]pyrrol-2-yl)-6-(4-methyl-tetrahydro-pyran-4-yl)-pyrimidin-2-ylamine] | 5890 nM

Now from value to molecule:

Row | Ki | SMILES
29 | 18 nM | CN[C@@H]1CCN(c2cc(Cc3ccc(Cl)cc3)nc(N)n2)C1 [Example 234, (R)-4-(4-Chloro-benzyl)-6-(3-methylamino-pyrrolidin-1-yl)-pyrimidin-2-ylamine]
30 | 8 nM | CN1CCN(c2cc(Cc3ccc(Cl)cc3)nc(N)n2)CC1 [Example 232, 4-(4-Chloro-benzyl)-6-(4-methyl-piperazin-1-yl)-pyrimidin-2-ylamine]
31 | 43 nM | CN[C@@H]1CCN(c2cc(COC)nc(N)n2)C1 [Example 221, (R)-4-Methoxymethyl-6-(3-methylamino-pyrrolidin-1-yl)-pyrimidin-2-ylamine]
32 | 4 nM | Nc1nc(C2CC2)cc(N2CC[C@@H](N)C2)n1 [Example 123, (R)-4-(3-Amino-pyrrolidin-1-yl)-6-cyclopropyl-pyrimidin-2-ylamine]
33 | 13 nM | Nc1nc(CCC(F)(F)F)cc(N2CC[C@@H](N)C2)n1 [Example 184, (R)-4-(3-Amino-pyrrolidin-1-yl)-6-(3,3,3-trifluoro-propyl)-pyrimidin-2-ylamine]
34 | 6 nM | Nc1nc(Cc2cccs2)cc(N2CCNCC2)n1 [Example 215, 4-piperazin-1-yl-6-thiophen-2-ylmethyl-pyrimidin-2-ylamine]
35 | 49 nM | CN1CCN(c2cc(C3(C)CCOCC3)nc(N)n2)CC1 [Example 154, 4-(4-Methyl-piperazin-1-yl)-6-(4-methyl-tetrahydro-pyran-4-yl)-pyrimidin-2-ylamine]
36 | 8 nM | CN1CCN(c2cc(C3CC3c3ccccc3)nc(N)n2)CC1 (stereo not drawn) [Example 158, 4-(4-Methyl-piperazin-1-yl)-6-(trans-2-phenyl-cyclopropyl)-pyrimidin-2-ylamine]
37 | 3 nM | CN[C@@H]1CCN(c2cc(C3CC3c3ccccc3)nc(N)n2)C1 (stereo in doubt) [Example 160, (R)-4-(3-Methylamino-pyrrolidin-1-yl)-6-(trans-2-phenyl-cyclopropyl)-pyrimidin-2-ylamine]
38 | 26 nM | COCc1cc(N2CCNCC2)nc(N)n1 [Example 224, 4-Methoxymethyl-6-piperazin-1-yl-pyrimidin-2-ylamine]
39 | 22 nM | Nc1nc(C2CC2)cc(N2CC(N)C2)n1 [Example 122, 4-(3-Amino-azetidin-1-yl)-6-cyclopropyl-pyrimidin-2-ylamine]
40 | 214 nM | CN[C@@H]1CCN(c2nc(N)nc3c2COCC3)C1 [Example 99, (R)-4-(3-Methylamino-pyrrolidin-1-yl)-7,8-dihydro-5H-pyrano[4,3-d]pyrimidin-2-ylamine]
41 | 932 nM | Nc1nc(C2Cc3ccccc3O2)cc(N2CC(N)C2)n1 (centres unmarked) [Example 172, 4-(3-Amino-azetidin-1-yl)-6-(2,3-dihydro-benzofuran-2-yl)-pyrimidin-2-ylamine]
42 | 6 nM | CN(CCN)c1cc(C2CCOC2)nc(N)n1 (centres unmarked) [Example 189, N^4-(2-Amino-ethyl)-N^4-methyl-6-(tetrahydro-furan-3-yl)-pyrimidine-2,4-diamine]
43 | 12 nM | Nc1nc(Cc2ccc(Cl)cc2)cc(N2CCNCC2)n1 [Example 233, 4-(4-Chloro-benzyl)-6-piperazin-1-yl-pyrimidin-2-ylamine]
44 | 4 nM | CN1CCN(c2cc(Cc3cccs3)nc(N)n2)CC1 [Example 213, 4-(4-Methyl-piperazin-1-yl)-6-thiophen-2-ylmethyl-pyrimidin-2-ylamine]
45 | 52 nM | Nc1nc(Cc2ccccc2)cc(N2CC(N)C2)n1 [Example 166, 4-(3-Amino-azetidin-1-yl)-6-benzyl-pyrimidin-2-ylamine]
46 | 82 nM | CN[C@@H]1CCN(c2cc(C3(C)CCOCC3)nc(N)n2)C1 [Example 155, (R)-4-(3-Methylamino-pyrrolidin-1-yl)-6-(4-methyl-tetrahydro-pyran-4-yl)-pyrimidin-2-ylamine]
47 | 136 nM | COc1c(C2CCCC2)nc(N)nc1N1CC[C@@H](N)C1 [Example 113, (R)-4-(3-Amino-pyrrolidin-1-yl)-6-cyclopentyl-5-methoxy-pyrimidin-2-ylamine]
